Structures can show the parent of a compound that is named as a salt.
Biological target: T1, human LPA1 (Homo sapiens, UniProt Q92633)
T1 construct: expressed in transfected cells; host or cells: Chinese hamster ovary (CHO) cells
Assay: LPA1 functional antagonist assay (calcium flux)
Assay type: cell-based
Conditions: CHO cells overexpressing human LPA1; inhibition of calcium flux induced by 10 nM LPA; read-out: hLPA1 IC50
In short: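 IC50 values come from 4-parameter logistic fits and mark 50% block of the calcium flux evoked by 10 nM LPA. Human LPA1-overexpressing CHO cells were calcium-dye loaded at 37 °C, then given test compound (0.08 nM–5 μM, 0.5% DMSO, HEPES-buffered HBSS with 0.1% fatty-acid-free BSA) for 20 min at room temperature before agonist.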

T1 sequence (Q92633 whole entry): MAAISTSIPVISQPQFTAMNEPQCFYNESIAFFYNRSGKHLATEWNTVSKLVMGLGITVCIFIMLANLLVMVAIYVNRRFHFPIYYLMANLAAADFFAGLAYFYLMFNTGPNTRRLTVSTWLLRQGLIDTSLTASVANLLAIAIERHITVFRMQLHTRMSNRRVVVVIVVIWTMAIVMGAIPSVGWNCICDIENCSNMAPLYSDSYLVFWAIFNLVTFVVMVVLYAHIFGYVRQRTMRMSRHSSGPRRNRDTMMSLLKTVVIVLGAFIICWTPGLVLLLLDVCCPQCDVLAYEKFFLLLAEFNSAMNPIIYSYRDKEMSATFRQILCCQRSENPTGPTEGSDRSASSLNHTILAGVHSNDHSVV

Which IC50 does the source give for `Cc1nc(-c2nnn(C)c2CNc2nccc(-c3ccccc3)n2)cnc1O[C@H]1CCC[C@H](C(=O)O)C1` [Example 137] here?
The IC50 was 56 nM.

For `Cc1nc(-c2nnn(C)c2CNc2nccc(-c3ccccc3F)n2)cnc1O[C@H]1CCC[C@H](C(=O)O)C1` [Example 138], which IC50 is on record?
The IC50 was 33 nM.

For `Cn1nnc(-c2ccc(O[C@H]3CCC[C@H](C(=O)O)C3)cn2)c1CNc1nccc(OC2CC2)n1` [Example 139], which IC50 is on record?
Its IC50 is 42 nM.

For `Cn1nnc(-c2ccc(O[C@H]3CCC[C@H](C(=O)O)C3)cn2)c1CNc1ccnc(OC2CC2)n1` [Example 140], which IC50 is on record?
The IC50 was 1370 nM.

`CCOc1ccnc(NCc2c(-c3ccc(O[C@H]4CCC[C@H](C(=O)O)C4)cn3)nnn2C)n1` [Example 141] was tested. Which IC50 did it give?
Its IC50 is 22 nM.

Which IC50 does the source give for `COc1nc(NCc2c(-c3ccc(O[C@H]4CCC[C@H](C(=O)O)C4)c(C)n3)nnn2C)ncc1F` [Example 142] here?
The IC50 was 159 nM.

For `Cc1nc(-c2nnn(C)c2CNc2ncc(F)c(-c3ccccc3)n2)ccc1O[C@H]1CCC[C@H](C(=O)O)C1` [Example 143], which IC50 is on record?
The IC50 was 26 nM.

`Cc1nc(-c2nnn(C)c2CNc2ncc(F)c(C(C)(C)C)n2)ccc1O[C@H]1CCC[C@H](C(=O)O)C1` [Example 144] was tested. Which IC50 did it give?
The IC50 was 40 nM.

For `Cc1cc(-c2ccccc2C#N)nc(NCc2c(-c3ccc(O[C@H]4CCC[C@H](C(=O)O)C4)c(C)n3)nnn2C)n1` [Example 145], which IC50 is on record?
The IC50 was 58 nM.

`Cc1nc(-c2nnn(C)c2CNc2ncc3c(n2)-c2ccccc2OC3)ccc1O[C@H]1CCC[C@H](C(=O)O)C1` [Example 147] was tested. Which IC50 did it give?
The IC50 was 278 nM.

`CCC1(c2ccnc(NCc3c(-c4ccc(O[C@H]5CCC[C@H](C(=O)O)C5)c(C)n4)nnn3C)n2)CC1` [Example 148] was tested. Which IC50 did it give?
The IC50 was 70 nM.

With `CCC(C)(C)c1ccnc(NCc2c(-c3ccc(O[C@H]4CCC[C@H](C(=O)O)C4)c(C)n3)nnn2C)n1` [Example 149] as the compound, how does the IC50 read?
The IC50 was 34 nM.

Which IC50 does the source give for `Cc1nc(-c2nnn(C)c2CNc2cc(C(C)(C)C)ccn2)ccc1O[C@H]1CCC[C@H](C(=O)O)C1` [Example 150] here?
The IC50 was 84 nM.

For `Cc1nc(-c2nnn(C)c2CNc2nccc(C3(C)CC3)n2)ccc1O[C@H]1CCC[C@H](C(=O)O)C1` [Example 151], which IC50 is on record?
The IC50 was 40 nM.

How did the IC50 turn out when `Cc1nc(-c2nnn(C)c2CNc2cc(Oc3ccccc3)ccn2)ccc1O[C@H]1CCC[C@H](C(=O)O)C1` [Example 152] was run?
The IC50 was 67 nM.

How did the IC50 turn out when `Cc1nc(-c2nnn(C)c2CNc2nccc(C(C)(C)O)n2)ccc1O[C@H]1CCC[C@H](C(=O)O)C1` [Example 153] was run?
The IC50 was 704 nM.

With `Cc1nc(-c2nnn(C)c2CNc2nccc(C3CC3C)n2)ccc1O[C@H]1CCC[C@H](C(=O)O)C1` (stereo partly drawn) [Example 154] as the compound, how does the IC50 read?
The IC50 was 43 nM.

With `Cc1nc(-c2nnn(C)c2CNc2nccc(C34CC(C3)C4)n2)ccc1O[C@H]1CCC[C@H](C(=O)O)C1` [Example 155] as the compound, how does the IC50 read?
Its IC50 is 96 nM.

`Cc1nc(-c2nnn(C)c2CNc2nccc(C3CC(F)C3)n2)ccc1O[C@H]1CCC[C@H](C(=O)O)C1` (stereo partly drawn) [Example 156] was tested. Which IC50 did it give?
Its IC50 is 32 nM.

Which IC50 does the source give for `Cc1nc(-c2nnn(C)c2CNc2ncc(F)c(C(C)C)n2)ccc1O[C@H]1CCC[C@H](C(=O)O)C1` [Example 157] here?
The IC50 was 40 nM.

With `Cc1nc(-c2nnn(C)c2CNc2ncc(Cl)c(C(C)C)n2)ccc1O[C@H]1CCC[C@H](C(=O)O)C1` [Example 158] as the compound, how does the IC50 read?
Its IC50 is 27 nM.

Which IC50 does the source give for `CCC(C)c1ccnc(NCc2c(-c3ccc(O[C@H]4CCC[C@H](C(=O)O)C4)c(C)n3)nnn2C)n1` (stereo partly drawn) [Example 159] here?
The IC50 was 21 nM.

`Cc1nc(-c2nnn(C)c2CNc2nccc(C3CC(F)(F)C3)n2)ccc1O[C@H]1CCC[C@H](C(=O)O)C1` [Example 160] was tested. Which IC50 did it give?
The IC50 was 17 nM.

How did the IC50 turn out when `COC(=O)c1cc(C(C)(C)C)nc(NCc2c(-c3ccc(O[C@H]4CCC[C@H](C(=O)O)C4)c(C)n3)nnn2C)n1` [Example 161] was run?
Its IC50 is 443 nM.

For `Cc1nc(-c2nnn(C)c2CNc2nc(C(N)=O)cc(C(C)(C)C)n2)ccc1O[C@H]1CCC[C@H](C(=O)O)C1` [Example 162], which IC50 is on record?
The IC50 was 2370 nM.

Which IC50 does the source give for `COC(=O)c1cc(C2CCC2)nc(NCc2c(-c3ccc(O[C@H]4CCC[C@H](C(=O)O)C4)c(C)n3)nnn2C)n1` [Example 163] here?
Its IC50 is 168 nM.

With `Cc1nc(-c2nnn(C)c2CNc2nc(C#N)cc(C3CCC3)n2)ccc1O[C@H]1CCC[C@H](C(=O)O)C1` [Example 164] as the compound, how does the IC50 read?
Its IC50 is 42 nM.

For `Cc1nc(-c2nnn(C)c2CNc2nc(C(N)=O)cc(C3CCC3)n2)ccc1O[C@H]1CCC[C@H](C(=O)O)C1` [Example 165], which IC50 is on record?
The IC50 was 243 nM.

Which IC50 does the source give for `Cc1nc(-c2nnn(C)c2CNc2nc(C#N)cc(C(C)(C)C)n2)ccc1O[C@H]1CCC[C@H](C(=O)O)C1` [Example 166] here?
The IC50 was 180 nM.

For `Cc1nc(-c2nnn(C)c2CNc2nccc(C3(C)CC(F)(F)C3)n2)ccc1O[C@H]1CCC[C@H](C(=O)O)C1` [Example 167], which IC50 is on record?
Its IC50 is 55 nM.

With `Cc1nc(-c2nnn(C)c2CNc2ncc(C#N)c(C3CCC3)n2)ccc1O[C@H]1CCC[C@H](C(=O)O)C1` [Example 168] as the compound, how does the IC50 read?
Its IC50 is 129 nM.

`COc1cc(C(C)(C)C)nc(NCc2c(-c3ccc(O[C@H]4CCC[C@H](C(=O)O)C4)c(C)n3)nnn2C)n1` [Example 169] was tested. Which IC50 did it give?
The IC50 was 86 nM.

With `COc1cc(C2CCC2)nc(NCc2c(-c3ccc(O[C@H]4CCC[C@H](C(=O)O)C4)c(C)n3)nnn2C)n1` [Example 170] as the compound, how does the IC50 read?
Its IC50 is 16 nM.

`Cc1nc(-c2nnn(C)c2CNc2ncc(C#N)c(C(C)(C)C)n2)ccc1O[C@H]1CCC[C@H](C(=O)O)C1` [Example 171] was tested. Which IC50 did it give?
Its IC50 is 177 nM.

`COc1cc(OC)nc(NCc2c(-c3ccc(O[C@H]4CCC[C@H](C(=O)O)C4)c(C)n3)nnn2C)n1` [Example 172] was tested. Which IC50 did it give?
Its IC50 is 61 nM.

`CCOc1cc(OCC)nc(NCc2c(-c3ccc(O[C@H]4CCC[C@H](C(=O)O)C4)c(C)n3)nnn2C)n1` [Example 173] was tested. Which IC50 did it give?
Its IC50 is 127 nM.

With `CCOc1cc(C)nc(NCc2c(-c3ccc(O[C@H]4CCC[C@H](C(=O)O)C4)c(C)n3)nnn2C)n1` [Example 174] as the compound, how does the IC50 read?
The IC50 was 56 nM.

How did the IC50 turn out when `Cc1nc(-c2nnn(C)c2CNc2nc(OC(C)C)cc(OC(C)C)n2)ccc1O[C@H]1CCC[C@H](C(=O)O)C1` [Example 175] was run?
Its IC50 is 384 nM.

With `COc1cc(C(C)C)nc(NCc2c(-c3ccc(O[C@H]4CCC[C@H](C(=O)O)C4)c(C)n3)nnn2C)n1` [Example 176] as the compound, how does the IC50 read?
Its IC50 is 27 nM.

`CCCOc1nc(NCc2c(-c3ccc(O[C@H]4CCC[C@H](C(=O)O)C4)c(C)n3)nnn2C)nc(OC)n1` [Example 177] was tested. Which IC50 did it give?
Its IC50 is 250 nM.

How did the IC50 turn out when `Cc1nc(-c2nnn(C)c2CNc2nncc(C(C)(C)C)n2)ccc1O[C@H]1CCC[C@H](C(=O)O)C1` [Example 178] was run?
The IC50 was 498 nM.

For `Cc1nc(-c2nnn(C)c2CNc2cc(OC3CCC3)ccn2)ccc1O[C@H]1CCC[C@H](C(=O)O)C1` [Example 180], which IC50 is on record?
Its IC50 is 246 nM.

With `Cc1nc(-c2nnn(C)c2CNc2ncnc(C(C)C)n2)ccc1O[C@H]1CCC[C@H](C(=O)O)C1` [Example 181] as the compound, how does the IC50 read?
Its IC50 is 106 nM.

For `Cc1nc(-c2nnn(C)c2CNc2ncnc(C(C)(C)C)n2)ccc1O[C@H]1CCC[C@H](C(=O)O)C1` [Example 182], which IC50 is on record?
The IC50 was 693 nM.

For `Cc1nc(-c2nnn(C)c2CNc2ncnc(C3CCC3)n2)ccc1O[C@H]1CCC[C@H](C(=O)O)C1` [Example 183], which IC50 is on record?
The IC50 was 54 nM.

With `Cc1nc(-c2nnn(C)c2CNc2ncnc(C3CCCC3)n2)ccc1O[C@H]1CCC[C@H](C(=O)O)C1` [Example 184] as the compound, how does the IC50 read?
The IC50 was 90 nM.

`Cc1nc(-c2nnn(C)c2CNc2ncnc(C3CCCCC3)n2)ccc1O[C@H]1CCC[C@H](C(=O)O)C1` [Example 185] was tested. Which IC50 did it give?
The IC50 was 288 nM.

For `Cc1nc(-c2nnn(C)c2CNc2nc(O)nc(C3CCCCC3)n2)ccc1O[C@H]1CCC[C@H](C(=O)O)C1` [Example 186], which IC50 is on record?
The IC50 was 717 nM.

`Cc1nc(-c2nnn(C)c2CNc2ncnc(C3CC3)n2)ccc1O[C@H]1CCC[C@H](C(=O)O)C1` [Example 187, (1S,3S)-3-((6-(5-(((4-Cyclopropyl-1,3,5-triazin-2-yl)amino)methyl)-1-methyl-1H-1,2,3-triazol-4-yl)-2-methylpyridin-3-yl)oxy)cyclohexane-1-carboxylic acid, bis TFA Salt] was tested. Which IC50 did it give?
The IC50 was 48 nM.

`Cc1nc(NCc2c(-c3ccc(O[C@H]4CCC[C@H](C(=O)O)C4)c(C)n3)nnn2C)nc(C2CC2)n1` [Example 188, (1S,3S)-3-((6-(5-(((4-Cyclopropyl-6-methyl-1,3,5-triazin-2-yl)amino)methyl)-1-methyl-1H-1,2,3-triazol-4-yl)-2-methylpyridin-3-yl)oxy)cyclohexane-1-carboxylic acid, bis TFA Salt] was tested. Which IC50 did it give?
Its IC50 is 138 nM.

`CCCCc1cnnc(NCc2c(-c3ccc(O[C@H]4CCC[C@H](C(=O)O)C4)c(C)n3)nnn2C)c1` [Example 189, (1S,3S)-3-((6-(5-(((5-Butylpyridazin-3-yl)amino)methyl)-1-methyl-1H-1,2,3-triazol-4-yl)-2-methylpyridin-3-yl)oxy)cyclohexane-1-carboxylic acid, bis TFA salt] was tested. Which IC50 did it give?
The IC50 was 108 nM.

With `Cc1nc(-c2nnn(C)c2CNc2cc(OC3CCC3)cnn2)ccc1O[C@H]1CCC[C@H](C(=O)O)C1` [Example 190, (1S,3S)-3-((6-(5-(((5-Cyclobutoxypyridazin-3-yl)amino)methyl)-1-methyl-1H-1,2,3-triazol-4-yl)-2-methylpyridin-3-yl)oxy)cyclohexane-1-carboxylic acid, bis TFA Salt] as the compound, how does the IC50 read?
Its IC50 is 187 nM.

`Cc1nc(-c2nnn(C)c2CNc2nnccc2OC2CCC2)ccc1O[C@H]1CCC[C@H](C(=O)O)C1` [Example 191, (1S,3S)-3-((6-(5-(((4-Cyclobutoxypyridazin-3-yl)amino)methyl)-1-methyl-1H-1,2,3-triazol-4-yl)-2-methylpyridin-3-yl)oxy)cyclohexane-1-carboxylic acid, bis TFA Salt] was tested. Which IC50 did it give?
Its IC50 is 103 nM.

With `Cc1nc(-c2nnn(C)c2CNc2nncc(-c3ccccc3)n2)ccc1O[C@H]1CCC[C@H](C(=O)O)C1` [Example 192, (1S,3S)-3-((2-Methyl-6-(1-methyl-5-(((5-phenyl-1,2,4-triazin-3-yl)amino)methyl)-1H-1,2,3-triazol-4-yl)pyridin-3-yl)oxy)cyclohexane-1-carboxylic acid, bis TFA Salt] as the compound, how does the IC50 read?
Its IC50 is 53 nM.

From patent publication US11267800B2, “Cyclohexyl acid triazole azines as LPA antagonists” (BRISTOL-MYERS SQUIBB COMPANY, priority 2017, dated 2022)
